Measurements published in PubChem BioAssay AID1259407 (Chemical Carcinogenesis Research Information System (CCRIS), 2018).
Active and inactive are the calls of the source. The rule behind the calls is not given here.

Tested on: CCRIS mutagenicity, Ames/micronucleus/aberration tests
Experiment: CCRIS mutagenicity studies
[1] = Test System: AMES SALMONELLA TYPHIMURIUM, Strain/Indicator: TA98, Metabolic Activation: RAT, LIVER, S-9, AROCLOR 1254, Method: STANDARD PLATE
[2] = Test System: AMES SALMONELLA TYPHIMURIUM, Strain/Indicator: TA1535, Metabolic Activation: NONE, Method: STANDARD PLATE
[3] = Test System: AMES SALMONELLA TYPHIMURIUM, Strain/Indicator: TA1537, Metabolic Activation: NONE, Method: STANDARD PLATE
[4] = Test System: AMES SALMONELLA TYPHIMURIUM, Strain/Indicator: TA98, Metabolic Activation: NONE, Method: STANDARD PLATE
[5] = Test System: AMES SALMONELLA TYPHIMURIUM, Strain/Indicator: TA100, Metabolic Activation: NONE, Method: STANDARD PLATE

O=C1[C@H]2CC=CC[C@H]2C(=O)N1SC(Cl)(Cl)Cl
mutagenic call (Test System: AMES SALMONELLA TYPHIMURIUM, Strain/Indicator: G46, Metabolic Activation: MOUSE, LIVER, S-9, PHENOBARBITAL, Method: STANDARD PLATE): active; positive | mutagenic call (Test System: AMES SALMONELLA TYPHIMURIUM, Strain/Indicator: TA97A, Metabolic Activation: NONE, Method: STANDARD PLATE): active; positive | mutagenic call (Test System: AMES SALMONELLA TYPHIMURIUM, Strain/Indicator: TA97A, Metabolic Activation: RAT, LIVER, S-9, AROCLOR 1254, Method: STANDARD PLATE): inactive; negative | mutagenic call (Test System: AMES SALMONELLA TYPHIMURIUM, Strain/Indicator: TA98, Metabolic Activation: NONE): active; positive | mutagenic call (Test System: AMES SALMONELLA TYPHIMURIUM, Strain/Indicator: TA98, Metabolic Activation: RAT, LIVER, S-9, AROCLOR 1254): active; positive | mutagenic call [1]: active; positive | mutagenic call (Test System: AMES SALMONELLA TYPHIMURIUM, Strain/Indicator: TA100, Metabolic Activation: NONE): active; positive | mutagenic call (Test System: AMES SALMONELLA TYPHIMURIUM, Strain/Indicator: TA100, Metabolic Activation: NONE, Method: PREINCUBATION): active; positive | mutagenic call (Test System: AMES SALMONELLA TYPHIMURIUM, Strain/Indicator: TA100, Metabolic Activation: RAT, LIVER, S-9, AROCLOR 1254): active; positive | mutagenic call (Test System: AMES SALMONELLA TYPHIMURIUM, Strain/Indicator: TA100, Metabolic Activation: RAT, LIVER, S-9, Method: STANDARD PLATE): active; positive | mutagenic call (Test System: AMES SALMONELLA TYPHIMURIUM, Strain/Indicator: TA100, Metabolic Activation: S-9 MIX, Method: STANDARD PLATE): active; positive | mutagenic call (Test System: AMES SALMONELLA TYPHIMURIUM, Strain/Indicator: TA102, Metabolic Activation: NONE): active; positive | mutagenic call (Test System: AMES SALMONELLA TYPHIMURIUM, Strain/Indicator: TA102, Metabolic Activation: RAT, LIVER, S-9, AROCLOR 1254): active; positive | mutagenic call (Test System: AMES SALMONELLA TYPHIMURIUM, Strain/Indicator: TA102, Metabolic Activation: RAT, LIVER, S-9, AROCLOR 1254, Method: STANDARD PLATE): inactive; negative | mutagenic call (Test System: AMES SALMONELLA TYPHIMURIUM, Strain/Indicator: TA102, Metabolic Activation: RAT, LIVER, S-9, PHENOBARBITAL, Method: STANDARD PLATE): inactive; negative | mutagenic call (Test System: AMES SALMONELLA TYPHIMURIUM, Strain/Indicator: TA104, Metabolic Activation: RAT, LIVER, S-9, AROCLOR 1254, Method: STANDARD PLATE): inactive; negative | mutagenic call (Test System: AMES SALMONELLA TYPHIMURIUM, Strain/Indicator: TA104, Metabolic Activation: RAT, LIVER, S-9, PHENOBARBITAL, Method: STANDARD PLATE): active; positive | mutagenic call (Test System: AMES SALMONELLA TYPHIMURIUM, Strain/Indicator: TA1535, Metabolic Activation: MOUSE, LIVER, S-9, PHENOBARBITAL, Method: STANDARD PLATE): active; positive | mutagenic call (Test System: AMES SALMONELLA TYPHIMURIUM, Strain/Indicator: TA1535, Metabolic Activation: NONE): active; positive | mutagenic call [2]: active; positive | mutagenic call (Test System: AMES SALMONELLA TYPHIMURIUM, Strain/Indicator: TA1535, Metabolic Activation: RAT, LIVER, S-9, AROCLOR 1254): active; positive | mutagenic call (Test System: AMES SALMONELLA TYPHIMURIUM, Strain/Indicator: TA1535, Metabolic Activation: RAT, LIVER, S-9, PHENOBARBITAL, Method: STANDARD PLATE): active; positive | mutagenic call (Test System: AMES SALMONELLA TYPHIMURIUM, Strain/Indicator: TA1537, Metabolic Activation: NONE): active; positive | mutagenic call [3]: active; positive | mutagenic call (Test System: AMES SALMONELLA TYPHIMURIUM, Strain/Indicator: TA1537, Metabolic Activation: RAT, LIVER, S-9, AROCLOR 1254): active; positive | mutagenic call (Test System: AMES SALMONELLA TYPHIMURIUM, Strain/Indicator: TA1537, Metabolic Activation: RAT, LIVER, S-9, PHENOBARBITAL, Method: STANDARD PLATE): active; positive | mutagenic call (Test System: AMES SALMONELLA TYPHIMURIUM, Strain/Indicator: TA1950, Metabolic Activation: NONE, Method: SPOT): active; positive | mutagenic call (Test System: Ames Salmonella typhimurium, Strain/Indicator: TA100, Metabolic Activation: None, Method: Preincubation): active; positive | mutagenic call (Test System: Ames Salmonella typhimurium, Strain/Indicator: TA1975P, Metabolic Activation: None, Method: Preincubation): active; positive (at higher doses) | mutagenic call (Test System: CHINESE HAMSTER OVARY, Strain/Indicator: CHO-K1-BH4 (HGPRT), Metabolic Activation: RAT, LIVER, S-9, AROCLOR, Method: SUSPENSION/PLATE): active; positive | mutagenic call (Test System: CHINESE HAMSTER V-79, Strain/Indicator: V-79/8-AZAGUANINE, Metabolic Activation: NONE, Method: STANDARD PLATE): active; positive | mutagenic call (Test System: CHINESE HAMSTER V-79, Strain/Indicator: V-79/OUABAIN, Metabolic Activation: NONE, Method: STANDARD PLATE): active; positive | mutagenic call (Test System: E. COLI, Strain/Indicator: WP2, Metabolic Activation: NONE, Method: STANDARD PLATE): active; positive | mutagenic call (Test System: E. COLI, Strain/Indicator: WP2, Metabolic Activation: RAT, LIVER, S-9, Method: STANDARD PLATE): active; positive | mutagenic call (Test System: E. COLI, Strain/Indicator: WP2 UVRA, Metabolic Activation: NONE, Method: STANDARD PLATE): active; positive | mutagenic call (Test System: E. COLI, Strain/Indicator: WP2 UVRA, Metabolic Activation: RAT, LIVER, S-9, AROCLOR 1254, Method: STANDARD PLATE): active; positive

Nc1nc2n[nH]nc2c(=O)[nH]1
mutagenic call [4]: inactive; negative | mutagenic call (Test System: AMES SALMONELLA TYPHIMURIUM, Strain/Indicator: TA98, Metabolic Activation: S-9, Method: STANDARD PLATE): inactive; negative | mutagenic call [5]: inactive; negative | mutagenic call (Test System: AMES SALMONELLA TYPHIMURIUM, Strain/Indicator: TA100, Metabolic Activation: S-9, Method: STANDARD PLATE): inactive; negative | mutagenic call (Test System: AMES SALMONELLA TYPHIMURIUM, Strain/Indicator: TA102, Metabolic Activation: NONE, Method: STANDARD PLATE): inactive; negative | mutagenic call [3]: inactive; negative | mutagenic call (Test System: AMES SALMONELLA TYPHIMURIUM, Strain/Indicator: TA1537, Metabolic Activation: S-9, Method: STANDARD PLATE): inactive; negative | mutagenic call (Test System: E. COLI, Strain/Indicator: WP2 (HCR), Metabolic Activation: NONE, Method: STANDARD PLATE): inactive; negative | mutagenic call (Test System: E. COLI, Strain/Indicator: WP2 (HCR), Metabolic Activation: S-9, Method: STANDARD PLATE): inactive; negative

CSCC[C@H](NC(=O)[C@@H](N)Cc1c[nH]c2ccccc12)C(=O)N[C@@H](CC(=O)O)C(=O)N[C@@H](Cc1ccccc1)C(N)=O
mutagenic call [4]: inactive; negative | mutagenic call [1]: inactive; negative | mutagenic call [5]: inactive; negative | mutagenic call (Test System: AMES SALMONELLA TYPHIMURIUM, Strain/Indicator: TA100, Metabolic Activation: RAT, LIVER, S-9, AROCLOR 1254, Method: STANDARD PLATE): inactive; negative | mutagenic call [2]: inactive; negative | mutagenic call (Test System: AMES SALMONELLA TYPHIMURIUM, Strain/Indicator: TA1535, Metabolic Activation: RAT, LIVER, S-9, AROCLOR 1254, Method: STANDARD PLATE): inactive; negative | mutagenic call [3]: inactive; negative | mutagenic call (Test System: AMES SALMONELLA TYPHIMURIUM, Strain/Indicator: TA1537, Metabolic Activation: RAT, LIVER, S-9, AROCLOR 1254, Method: STANDARD PLATE): inactive; negative

CC(=O)[O-].CC(=O)[O-].O.O.O.[Pb+2]
mutagenic call (End Point: IN VITRO MICRONUCLEUS, Test System: HAMSTER V79 CELLS, Metabolic Activation: NONE): active; positive (aneugenic above 0.05 um) | mutagenic call (End Point: IN VIVO MICRONUCLEUS, Test System: BLOOD ERYTHROCYTES AND RETICULOCYTES, Species: RAT, Strain/Sex: WISTAR/MALE, FEMALE (SUCKLING), Route: IP INJECTION): inactive; negative | mutagenic call (End Point: IN VIVO MICRONUCLEUS, Test System: RETICULOCYTES, ERYTHROCYTES, Species: RAT, Strain/Sex: WISTAR/MALE, FEMALE (SUCKLING), Route: ORAL): active; positive | mutagenic call (End Point: In vivo micronucleus, Test System: Bone marrow polychromatic erythrocytes, Species: Rat, Strain/Sex: Wistar/Male, female, Route: Oral): active; positive
